{
  "source": "patent US9176131B2",
  "about": "“Method for diagnosing and treating Crohn's disease” (priority 2004, dated 2015)",
  "system": "E. coli LF82 strain (adhesion to the brush border of the enterocytes via the type 1 pili)",
  "assay": "Assay of inhibition by D-mannose of adhesion of E. coli LF82 to isolated enterocytes",
  "format": "cell-based, Escherichia coli",
  "settings": "for Adhesion index with 2% D-mannose: 2% (w/v) D-mannose, mean number of bacteria adhering to the brush border of an enterocyte; for Adhesion index (% relative) with 2% D-mannose: compared with absence of D-mannose = 100%",
  "procedure": "The adhesion trials were performed as described in Darfeuille-Michaud et al., (1990); S. Knutton et al., (1985) and B. Lafeuille et al., (1981). The frozen intestinal samples were washed 3 times in PBS and the ileal mucosa was scraped with a cover glass in order to detach the enterocytes in PBS buffer supplemented with 0.25 M EDTA. About 10^5 isolated enterocytes were mixed with 10^8 E. coli cells in MEM medium containing 10% fetal calf serum (FCS, Seromed). After incubating for 2 hours at 37° C. and with gentle stirring, the enterocytes were washed 3 times in PBS (pH 7.2). The adhesion of the bacteria was quantified by examining under a phase contrast microscope at magnification×1000. The counting was performed according to a double blind design in order to determine the number of E. coli adhering to the brush border of 30 to 50 enterocytes. The adhesion index is expressed as number of bacteria attached to the brush border of one enterocyte.\nThe inhibitory power of D-mannose on the adhesion of the E. coli LF82 strain to the brush border of the enterocytes via the type 1 pili was tested. Adhesion trials were performed in the presence of 2% (w/v) D-mannose (Sigma) in MEM containing 10% FCS, the procedure being carried out as described above on enterocytes obtained from 3 CD patients (A, B and C) The results are presented in Table 3.",
  "data": [
    {"smiles": "O=C[C@@H](O)[C@@H](O)[C@H](O)[C@H](O)CO", "note": "[D-mannose]", "values": [
      {"measurement": "Adhesion index with 2% D-mannose", "setting": "enterocytes of CD patient A", "result": 0.028},
      {"measurement": "Adhesion index (% relative) with 2% D-mannose", "setting": "enterocytes of CD patient A", "result": 2.7, "unit": "%"},
      {"measurement": "Adhesion index with 2% D-mannose", "setting": "enterocytes of CD patient B", "result": 0.032},
      {"measurement": "Adhesion index (% relative) with 2% D-mannose", "setting": "enterocytes of CD patient B", "result": 2.1, "unit": "%"},
      {"measurement": "Adhesion index with 2% D-mannose", "setting": "enterocytes of CD patient C", "result": 0.025},
      {"measurement": "Adhesion index (% relative) with 2% D-mannose", "setting": "enterocytes of CD patient C", "result": 1.4, "unit": "%"},
      {"measurement": "Effect on index of adhesion of the LF82 strain to the brush border of the enterocytes", "setting": "enterocytes of patients suffering from Crohn's disease, 2% D-mannose", "result": "significant reduction"}
    ]}
  ]
}
